# Laboratory results reported in patent US20250134889A1, “TARGETING IRE1 KINASE AND FMRP FOR PROPHYLAXIS, MANAGEMENT AND TREATMENT OF ATHEROSCLEROSIS” (CEDARS-SINAI MEDICAL CENTER, priority 2022, published 2025).
# System: atherosclerosis in Apoe-/- mice
# Assay: Atherosclerosis in Apoe-/- mice fed WD
# Assay type: in vivo, mouse
# Description: FIGS. 6A-6J depict that IRE1 kinase inhibition alleviates atherosclerosis. (Data are mean±SEM; Mann Whitney U test. * P≤0.05, ** P≤0.01, *** P≤0.001.) • 6A. Atherosclerosis experiment design in Apoe^−/− mice were fed with WD (12 weeks) and injected with vehicle (DMSO) or AMG-18 (30 mg/kg) once a day in the last 4 weeks of WD. • 6B. Lesion area calculated from en face aorta, stained with ORO (n=5; Scale bar=5 mm). • 6C. Total plaque area was calculated from H&E-stained aortic root sections (n=5; Scale bar=300 μm). • 6D. Foam cell area was calculated from ORO-stained aortic root sections (n=5; Scale bar=300 μm). • 6E. Necrotic area was calculated from H&E-stained aortic root sections (n=5; Scale bar=100 μm). • 6F. Atherosclerosis experiment design in Apoe^−/− mice were fed with WD (12 weeks) and injected with vehicle (DMSO) or AMG-18 (30 mg/kg) twice a day in the last 4 weeks of WD. • 6G. Lesion area calculated from en face aorta, stained with ORO (n=6; Scale bar=5 mm). • 6H. Total plaque area was calculated from H&E-stained aortic root sections (n=5; Scale bar=300 μm). • 6I. Foam cell area was calculated from ORO-stained aortic root sections (n=5; Scale bar=300 μm). • 6J. Necrotic area was calculated from H&E-stained aortic root sections (n=5; Scale bar=100 μm).
# FIGS. 6K-6T depict: (Data are mean±SEM; Mann Whitney U test. * P≤0.05, ** P≤0.01, *** P≤0.001.) • 6K. The ratio of mouse weight at the beginning of the experiment over the weight at the end of the experiment in FIG. 6A (n=5). • 6L-6N. Plasma measurements for (6L) glucose (n=5) and (6M) cholesterol (n=5) from mice in FIG. 6A. (6N) Abundance of B cells, T cells and monocytes in the peripheral blood as % of total CD45+ cells from the vehicle (DMSO) or AMG-18 (30 mg/kg) once a day injected mice in FIG. 6A (n=5). • 6O. Protein lysates of liver from mice in FIG. 6A. Proteins were analyzed by western blotting using specific antibodies for pIRE1 and β-Actin (n=5). • 6P. The ratio of mouse weight at the beginning of the experiment over the weight at the end of the experiment in FIG. 6F (n=6). • 6Q-6R. Plasma measurements for (6Q) glucose (n=6) and (6R) cholesterol (n=6) from FIG. 6F. • 6S-6T. Protein lysates of (6S) thioglycolate-elicited PM and (6T) liver from mice in FIG. 6F. Proteins were analyzed by western blotting using specific antibodies for pIRE1 and β-Actin (n=6).
# Mice studies and treatments: C57BL/6 (WT, Fmr1^+/+), Fmr1^−/− and Apolipoprotein E-deficient (Apoe^−/−) mice were purchased from Jackson Laboratory. IRE1 conditional knock out (Ire1α^flox/flox) mice were a kind gift from Dr. Takao Iwawaki (Kanazawa Medical University, Japan) and characterized before (Iwawaki et al, 2009). […] Fmr1 conditional knock out (Fmr1^flox/flox) mice were a kind gift from dr. David Nelson. Fmr1^flox/flox mice were inter-crossed with LysM^cre mice purchased from Jackson Lab (004781) to obtain myeloid Fmr1-deficient (myFmr1^−/−) mice. Starting at 8 weeks of age, Fmr1^−/−, Fmr1^−/−, myFmr1/or myFmr1^−/− mice were injected with 1×10^10 AAV_PCSK9 (AAV8-D377Y-mPCSK9, Vector BiolabsAAV-268246) via tail vein, then fed with normal chow or high cholesterol/high fat atherosclerotic mouse diet from Envigo (TD.88137) for 6 to 16 weeks. Apoe^−/− mice were fed with WD (12 weeks) and intraperitoneally injected with vehicle (DMSO) or AMG-18 (30 mg/kg) once or twice a day in the last 4 weeks of WD. C57BL/6 were injected with Tunicamycin (TM, 1 mg/kg) and with AMG-18 (30 mg/kg) or vehicle (DMSO) in 20% vol/vol Cremophor EL saline solution. 8 hours later peritoneal macrophages were isolated by thioglycolate elicitation for further analysis. Mice were kept under specific pathogen-free conditions with food and water ad libititum. Both female and male mice were used for experiments. […]
# [1] = 30 mg/kg once daily, last 4 weeks of 12 weeks WD
# [2] = 30 mg/kg twice daily, last 4 weeks of 12 weeks WD
compound,measurement,setting,value
Cc1ccc2c(NS(=O)(=O)c3ccccc3Cl)cccc2c1Oc1ncccc1-c1ccnc(N[C@H]2CCCNC2)n1 [AMG-18],aortic root lesion area,[1],not different
same,atherosclerotic lesions in en face aorta preparations,[1],decrease
same,body weight,[1],no significant differences
same,foam cell area,[1],significantly decreased
same,necrotic core area,[1],significantly decreased
same,number of circulating immune cells,[1],no significant differences
same,IRE1 autophosphorylation (target engagement),"30 mg/kg once daily, liver lysates",reduced
same,aortic root lesion area,[2],did not alter
same,atherosclerotic lesions in en face aorta preparations,[2],significant decrease
same,body weight ratio,[2],decrease
same,foam cell area,[2],significantly decreased
same,necrotic core area,[2],significantly decreased
same,IRE1 autophosphorylation (target engagement),"30 mg/kg twice daily, PM and liver lysates",reduced
